Test results reported in patent US11179383B2 (Gilead Sciences, Inc., priority 2018, dated 2021).

Biological target: T1, α4β7 integrin (Homo sapiens, UniProt P13612+P26010)
T1 construct: monitoring the capture of α4β7 integrin expressing cells on a recombinant MadCAM-1 extracellular domain-coated plate; endogenous in cells; host or cells: RPMI8866 cells
T1 sequence (P13612 34-1032): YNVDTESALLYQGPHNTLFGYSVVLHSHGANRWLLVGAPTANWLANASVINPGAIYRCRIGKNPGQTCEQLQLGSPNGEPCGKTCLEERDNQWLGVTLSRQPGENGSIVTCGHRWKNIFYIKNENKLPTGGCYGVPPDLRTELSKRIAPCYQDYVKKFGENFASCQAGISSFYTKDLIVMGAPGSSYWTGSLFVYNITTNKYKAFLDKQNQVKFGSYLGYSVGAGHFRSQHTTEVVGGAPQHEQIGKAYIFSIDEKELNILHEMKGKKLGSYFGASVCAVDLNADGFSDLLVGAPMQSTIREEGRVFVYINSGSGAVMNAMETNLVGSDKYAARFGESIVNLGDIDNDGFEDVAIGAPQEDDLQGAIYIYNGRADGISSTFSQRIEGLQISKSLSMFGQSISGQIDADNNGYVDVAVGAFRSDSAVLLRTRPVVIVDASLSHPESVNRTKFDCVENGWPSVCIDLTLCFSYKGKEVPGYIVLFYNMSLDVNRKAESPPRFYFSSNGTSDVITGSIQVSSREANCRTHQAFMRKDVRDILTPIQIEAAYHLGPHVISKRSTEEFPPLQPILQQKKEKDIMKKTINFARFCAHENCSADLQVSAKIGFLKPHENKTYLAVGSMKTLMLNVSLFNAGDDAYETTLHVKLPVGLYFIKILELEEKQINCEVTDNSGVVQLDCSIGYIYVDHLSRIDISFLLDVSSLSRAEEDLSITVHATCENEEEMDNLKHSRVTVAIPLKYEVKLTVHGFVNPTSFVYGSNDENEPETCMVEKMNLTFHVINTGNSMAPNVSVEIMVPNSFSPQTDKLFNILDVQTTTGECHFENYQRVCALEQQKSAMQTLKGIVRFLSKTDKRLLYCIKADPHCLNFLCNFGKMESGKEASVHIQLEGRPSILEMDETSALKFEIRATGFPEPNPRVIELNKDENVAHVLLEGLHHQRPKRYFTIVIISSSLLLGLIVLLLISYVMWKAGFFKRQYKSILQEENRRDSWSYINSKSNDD
T1 sequence (P26010 20-798): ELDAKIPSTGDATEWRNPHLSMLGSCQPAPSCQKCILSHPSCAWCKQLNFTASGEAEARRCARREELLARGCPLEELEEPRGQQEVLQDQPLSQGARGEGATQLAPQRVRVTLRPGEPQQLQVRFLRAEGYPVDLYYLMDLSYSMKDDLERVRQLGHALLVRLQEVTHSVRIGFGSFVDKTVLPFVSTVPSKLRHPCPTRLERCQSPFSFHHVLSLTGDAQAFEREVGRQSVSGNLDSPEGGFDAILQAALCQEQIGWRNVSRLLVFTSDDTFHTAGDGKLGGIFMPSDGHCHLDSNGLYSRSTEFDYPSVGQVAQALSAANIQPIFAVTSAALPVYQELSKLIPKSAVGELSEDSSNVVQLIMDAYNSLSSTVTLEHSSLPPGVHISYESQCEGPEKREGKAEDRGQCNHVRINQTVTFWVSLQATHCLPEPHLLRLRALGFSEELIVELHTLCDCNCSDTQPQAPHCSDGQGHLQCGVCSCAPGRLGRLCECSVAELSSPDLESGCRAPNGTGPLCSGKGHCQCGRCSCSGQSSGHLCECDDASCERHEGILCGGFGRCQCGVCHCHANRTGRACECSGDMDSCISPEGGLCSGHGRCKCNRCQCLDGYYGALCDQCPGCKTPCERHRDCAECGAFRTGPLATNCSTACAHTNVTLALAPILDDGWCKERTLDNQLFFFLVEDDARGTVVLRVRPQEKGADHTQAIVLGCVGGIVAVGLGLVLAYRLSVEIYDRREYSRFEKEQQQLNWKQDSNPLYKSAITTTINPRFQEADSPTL
Assay: α4β7 Integrin Cell Capture Assay
Format: cell-based
Details: capture of α4β7 integrin expressing RPMI8866 cells on recombinant MadCAM-1 extracellular domain-coated plate; DMEM+0.5% FBS+0.5 mM MnCl2; read-out: EC50 α4β7
In short: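 RPMI8866 cells in DMEM + 0.5% FBS + 0.5 mM MnCl2 preincubated with compound 1 h at 37 °C, then allowed to bind 30 min at 37 °C to plates coated with MAdCAM-1 extracellular domain (1.0 μg/mL). Cells fixed with glutaraldehyde, Hoechst-stained, imaged and bound cells counted; EC50 from cell count versus concentration.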

Structure (SMILES) | EC50
COc1cccc(F)c1C(=O)N[C@@H](Cc1ccc(-c2c(Cl)cc(F)cc2Cl)c2cccnc12)C(=O)O [Example 2, (S)-3-(5-(2,6-dichloro-4-fluorophenyl)quinolin-8-yl)-2-(2-fluoro-6-methoxybenzamido)propanoic acid] | 417 nM
CC[C@@H](Nc1cc(F)c(C(=O)N[C@@H](Cc2ccc(-c3c(OC)cc(C)n(C)c3=O)c3ccccc23)C(=O)O)c(F)c1)C(F)(F)F (single isomer, unassigned) [Example 130] | 0.6 nM
Cc1c(-c2ccc(C[C@H](NC(=O)c3c(Cl)cccc3Cl)C(=O)O)c3ncccc23)c(=O)n(C)c2ccccc12 (single isomer, unassigned) [Example 48] | 2.1 nM
O=C(N[C@@H](Cc1ccc(-c2c(Cl)cc(F)cc2Cl)c2ccccc12)C(=O)O)c1c(F)cccc1F [Example 106, (S)-3-(4-(2,6-dichloro-4-fluorophenyl)naphthalen-1-yl)-2-(2,6-difluorobenzamido)propanoic acid] | 196 nM
CCOCc1cc(OC)c(-c2ccc(C[C@H](NC(=O)c3c(Cl)cccc3Cl)C(=O)O)c3nc(C)oc23)c(OC)c1 [Example 153, (S)-2-(2,6-dichlorobenzamido)-3-(7-(4-(ethoxymethyl)-2,6-dimethoxyphenyl)-2-methylbenzo[d]oxazol-4-yl)propanoic acid] | 28.4 nM
CCOCc1cc(OC)c(-c2ncc(C[C@H](NC(=O)c3c(F)cc(N[C@H](CC)C(F)(F)F)cc3F)C(=O)O)c3ccccc23)c(OC)c1 [Example 168, (S)-2-(2,6-difluoro-4-(((R)-1,1,1-trifluorobutan-2-yl)amino)benzamido)-3-(1-(4-(ethoxymethyl)-2,6-dimethoxyphenyl)isoquinolin-4-yl)propanoic acid] | 26.6 nM
COc1cccc(Cl)c1-c1ccc(C[C@H](NC(=O)c2c(Cl)cccc2Cl)C(=O)O)c2ncccc12 [Example 37, (2S)-3-(5-(2-chloro-6-methoxyphenyl)quinolin-8-yl)-2-(2,6-dichlorobenzamido) propanoic acid] | 65.6 nM
Cn1c(=O)c(-c2ccc(C[C@H](NC(=O)c3c(Cl)cccc3Cl)C(=O)O)c3ncccc23)c(C(F)(F)F)c2cc(Br)ccc21 (single isomer, unassigned) [Example 64] | 4.4 nM
COc1cc(F)cnc1-c1ccc(C[C@H](NC(=O)c2c(Cl)cccc2Cl)C(=O)O)c2ncccc12 [Example 13, (S)-2-(2,6-dichlorobenzamido)-3-(5-(5-fluoro-3-methoxypyridin-2-yl)quinolin-8-yl)propanoic acid] | 66.9 nM
Cn1cc(C(F)(F)F)cc(-c2ccc(C[C@H](NC(=O)c3c(Cl)cccc3Cl)C(=O)O)c3ncccc23)c1=O [Example 23, (S)-2-(2,6-dichlorobenzamido)-3-(5-(1-methyl-2-oxo-5-(trifluoromethyl)-1,2-dihydropyridin-3-yl)quinolin-8-yl)propanoic acid] | 18.5 nM
CC[C@@H](Nc1cc(F)c(C(=O)N[C@@H](Cc2ccc(-c3c(OC)cc(C)n(C)c3=O)c3ccccc23)C(=O)O)c(F)c1)C(F)(F)F (single isomer, unassigned) [Example 131] | 0.5 nM
COc1ccn(C)c(=O)c1-c1ccc(CC(NC(=O)c2c(Cl)cccc2Cl)C(=O)O)c2ncccc12 (stereo not drawn) [Example 32, 2-(2,6-Dichlorobenzamido)-3-(5-(4-methoxy-1-methyl-2-oxo-1,2-dihydropyridin-3-yl)quinolin-8-yl)propanoic acid] | 6 nM
Cc1ccc(-c2ccc(C[C@H](NC(=O)c3c(Cl)cccc3Cl)C(=O)O)c3ncccc23)c(=O)n1C [Example 33, (S)-2-(2,6-dichlorobenzamido)-3-(5-(1,6-dimethyl-2-oxo-1,2-dihydropyridin-3-yl)quinolin-8-yl)propanoic acid] | 12.2 nM
Cn1c(=O)c(-c2ccc(C[C@H](NC(=O)c3c(Cl)cccc3Cl)C(=O)O)c3ncccc23)c(C(F)(F)F)c2ccccc21 (single isomer, unassigned) [Example 63] | 33.8 nM
CC[C@@H](Nc1cc(F)c(C(=O)N[C@@H](Cc2ccc(-c3cc4cnccc4n(C)c3=O)c3ccccc23)C(=O)O)c(F)c1)C(F)(F)F [Example 142] | 0.5 nM
